Results from ChEMBL document CHEMBL3880401, “Novel aminopyridine derivatives as mGluR5 antagonists” (2006).

target: Metabotropic glutamate receptor 5 (Rattus norvegicus, UniProt P31424); assay: Displacement of [3H]-MPEP from mGlur5 from Sprague-Dawley rat brain membranes incubated for 1 hr by liquid scintillation spectrometry; format: tissue-based, Membrane
Sequence (P31424 whole entry): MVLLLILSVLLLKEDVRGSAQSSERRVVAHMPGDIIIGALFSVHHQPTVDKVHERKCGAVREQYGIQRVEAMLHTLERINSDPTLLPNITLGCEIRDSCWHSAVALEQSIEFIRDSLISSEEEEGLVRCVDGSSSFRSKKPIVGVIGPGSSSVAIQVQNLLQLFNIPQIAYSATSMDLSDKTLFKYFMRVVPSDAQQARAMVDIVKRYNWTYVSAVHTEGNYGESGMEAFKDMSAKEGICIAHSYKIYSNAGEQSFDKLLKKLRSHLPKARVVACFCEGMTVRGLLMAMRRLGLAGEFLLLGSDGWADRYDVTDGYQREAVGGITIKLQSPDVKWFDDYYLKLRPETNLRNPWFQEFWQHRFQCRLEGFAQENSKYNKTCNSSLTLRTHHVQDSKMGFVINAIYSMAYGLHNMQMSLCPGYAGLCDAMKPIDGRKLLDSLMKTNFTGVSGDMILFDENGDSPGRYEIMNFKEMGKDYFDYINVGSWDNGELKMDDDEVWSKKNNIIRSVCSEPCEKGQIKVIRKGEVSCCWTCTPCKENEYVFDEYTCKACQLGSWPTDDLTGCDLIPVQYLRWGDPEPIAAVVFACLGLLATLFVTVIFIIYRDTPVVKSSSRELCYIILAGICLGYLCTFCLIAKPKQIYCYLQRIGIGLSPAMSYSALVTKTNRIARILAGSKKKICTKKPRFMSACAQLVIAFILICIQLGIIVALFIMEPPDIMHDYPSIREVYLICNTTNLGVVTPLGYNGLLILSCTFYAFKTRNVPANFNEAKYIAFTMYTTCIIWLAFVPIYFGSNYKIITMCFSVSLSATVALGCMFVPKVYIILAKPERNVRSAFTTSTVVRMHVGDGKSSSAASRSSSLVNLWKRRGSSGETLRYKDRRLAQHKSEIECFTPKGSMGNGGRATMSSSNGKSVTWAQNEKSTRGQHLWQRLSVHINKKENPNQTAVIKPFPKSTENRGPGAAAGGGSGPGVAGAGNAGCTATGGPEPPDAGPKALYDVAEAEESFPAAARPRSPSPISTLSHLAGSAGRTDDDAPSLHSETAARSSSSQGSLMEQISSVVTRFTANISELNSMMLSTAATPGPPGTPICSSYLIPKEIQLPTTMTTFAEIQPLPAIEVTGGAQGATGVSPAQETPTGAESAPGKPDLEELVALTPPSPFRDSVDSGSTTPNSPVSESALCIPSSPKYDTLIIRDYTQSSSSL

Compound | IC50 [nM]
Cc1cc(C)c(N)c(C#Cc2cccc(F)c2)n1 | < 30
Cc1ccc(N)c(C#Cc2cccc(F)c2)n1 | < 30
Cc1ccc(N)c(C#Cc2cncc(Cl)c2)n1 | < 30
Cc1ccc(N)c(C#Cc2cc(F)cc(F)c2)n1 | < 30
Cc1cc(C)c(N)c(C#Cc2cccc(Cl)c2)n1 | < 30
